According to ChEMBL document CHEMBL1201862, “PubChem BioAssay data set” (2004):
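48-hour exposure; five concentrations; linearly interpolated endpoints. GI50 marks 50% less growth.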 Calls of active or inactive are those of the source. No stated cut-off is given here; in the data, active = GI50 up to about 1.1 µM and inactive = higher.

What was measured:
Experiment in all cases: NCI-60 cell line screen, 48 h
COLO 205 = system: COLO 205
HCC 2998 = system: HCC 2998
HOP-92 = system: HOP-92
HT-29 = system: HT-29
LOX IMVI = system: LOX IMVI
NCI-H226 = system: NCI-H226
NCI-H23 = system: NCI-H23
OVCAR-3 = system: OVCAR-3
OVCAR-4 = system: OVCAR-4
SF-268 = system: SF-268
SF-295 = system: SF-295
SK-MEL-28 = system: SK-MEL-28
SK-MEL-2 = system: SK-MEL-2
SK-OV-3 = system: SK-OV-3
SW-620 = system: SW-620
UACC-62 = system: UACC-62
HCT-15 = system: HCT-15
NCI-H522 = system: NCI-H522
HL-60 = system: HL-60
786-0 = system: 786-0

Cc1cc(C)c(S(=O)(=O)N(CCCN)OCCCN)c(C)c1
GI50 (COLO 205): > 100 µM (inactive) | GI50 (HCC 2998): > 100 µM (inactive) | GI50 (HOP-92): 64.1 µM (inactive) | GI50 (HT-29): > 100 µM (inactive) | GI50 (LOX IMVI): > 100 µM (inactive) | GI50 (NCI-H226): > 100 µM (inactive) | GI50 (NCI-H23): > 100 µM (inactive) | GI50 (OVCAR-3): 56 µM (inactive) | GI50 (OVCAR-4): > 100 µM (inactive) | GI50 (SF-268): > 100 µM (inactive) | GI50 (SF-295): > 100 µM (inactive) | GI50 (SK-MEL-28): > 100 µM (inactive) | GI50 (SK-MEL-2): > 100 µM (inactive) | GI50 (SK-OV-3): > 100 µM (inactive) | GI50 (SW-620): > 100 µM (inactive) | GI50 (UACC-62): > 100 µM (inactive)

CCOC(=O)C1CSCCSC1
GI50 (COLO 205): > 100 µM (inactive) | GI50 (HCC 2998): 25.5 µM (inactive) | GI50 (HCT-15): > 100 µM | GI50 (HOP-92): > 100 µM (inactive) | GI50 (HT-29): > 100 µM (inactive) | GI50 (LOX IMVI): > 100 µM (inactive) | GI50 (NCI-H226): > 100 µM (inactive) | GI50 (NCI-H23): > 100 µM (inactive) | GI50 (NCI-H522): > 100 µM (inactive) | GI50 (SF-268): > 100 µM (inactive) | GI50 (SF-295): > 100 µM (inactive) | GI50 (SK-MEL-28): > 100 µM (inactive) | GI50 (SK-OV-3): > 100 µM (inactive) | GI50 (SW-620): > 100 µM (inactive)

CCC(=O)NC(Nc1ccccc1F)(C(F)(F)F)C(F)(F)F
GI50 (COLO 205): > 100 µM (inactive) | GI50 (HCC 2998): > 100 µM (inactive) | GI50 (HCT-15): > 100 µM | GI50 (HL-60): > 100 µM (inactive) | GI50 (HOP-92): > 100 µM (inactive) | GI50 (HT-29): > 100 µM (inactive) | GI50 (LOX IMVI): > 100 µM (inactive) | GI50 (NCI-H23): > 100 µM (inactive) | GI50 (NCI-H522): > 100 µM (inactive) | GI50 (OVCAR-3): > 100 µM (inactive) | GI50 (OVCAR-4): > 100 µM (inactive) | GI50 (SF-268): > 100 µM (inactive) | GI50 (SF-295): > 100 µM (inactive) | GI50 (SK-MEL-28): > 100 µM (inactive) | GI50 (SK-MEL-2): > 100 µM (inactive) | GI50 (SK-OV-3): > 100 µM (inactive) | GI50 (SW-620): > 100 µM (inactive) | GI50 (UACC-62): 40.6 µM (inactive)

COc1ccc2c(c1)OCc1c-2oc2ccccc2c1=O
GI50 (786-0): 45.7 µM (inactive) | GI50 (COLO 205): > 100 µM (inactive) | GI50 (HCC 2998): > 100 µM (inactive) | GI50 (HCT-15): > 100 µM | GI50 (HOP-92): > 100 µM (inactive) | GI50 (HT-29): > 100 µM (inactive) | GI50 (LOX IMVI): > 100 µM (inactive) | GI50 (NCI-H226): > 100 µM (inactive) | GI50 (NCI-H23): 0.0895 µM (active) | GI50 (NCI-H522): > 100 µM (inactive) | GI50 (OVCAR-3): > 100 µM (inactive) | GI50 (SF-268): 69.3 µM (inactive) | GI50 (SF-295): 52.7 µM (inactive) | GI50 (SK-MEL-2): > 100 µM (inactive) | GI50 (SK-OV-3): 47.5 µM (inactive) | GI50 (UACC-62): > 100 µM (inactive)

CSc1ccc(/C=C2\N=C(c3ccccc3)N(/N=C3\C(=O)Nc4ccccc43)C2=O)cc1
GI50 (786-0): > 100 µM (inactive) | GI50 (COLO 205): > 100 µM (inactive) | GI50 (HCC 2998): > 100 µM (inactive) | GI50 (HCT-15): > 100 µM | GI50 (HL-60): > 100 µM (inactive) | GI50 (HOP-92): > 100 µM (inactive) | GI50 (HT-29): > 100 µM (inactive) | GI50 (LOX IMVI): > 100 µM (inactive) | GI50 (NCI-H23): > 100 µM (inactive) | GI50 (NCI-H522): > 100 µM (inactive) | GI50 (OVCAR-3): 83.6 µM (inactive) | GI50 (OVCAR-4): > 100 µM (inactive) | GI50 (SF-268): > 100 µM (inactive) | GI50 (SF-295): > 100 µM (inactive) | GI50 (SK-MEL-28): > 100 µM (inactive) | GI50 (SK-MEL-2): > 100 µM (inactive) | GI50 (SK-OV-3): > 100 µM (inactive) | GI50 (SW-620): > 100 µM (inactive) | GI50 (UACC-62): > 100 µM (inactive)

CCOP(=O)(OCC)C(Cc1ccc(Cl)cc1)NS(=O)(=O)c1ccc(C)cc1 (configuration not stated)
GI50 (786-0): > 100 µM (inactive) | GI50 (COLO 205): > 100 µM (inactive) | GI50 (HCC 2998): > 100 µM (inactive) | GI50 (HCT-15): > 100 µM | GI50 (HL-60): > 100 µM (inactive) | GI50 (HOP-92): > 100 µM (inactive) | GI50 (HT-29): > 100 µM (inactive) | GI50 (LOX IMVI): > 100 µM (inactive) | GI50 (NCI-H23): > 100 µM (inactive) | GI50 (NCI-H522): 67.9 µM (inactive) | GI50 (OVCAR-3): > 100 µM (inactive) | GI50 (OVCAR-4): > 100 µM (inactive) | GI50 (SF-268): > 100 µM (inactive) | GI50 (SF-295): > 100 µM (inactive) | GI50 (SK-MEL-28): > 100 µM (inactive) | GI50 (SK-MEL-2): > 100 µM (inactive) | GI50 (SK-OV-3): > 100 µM (inactive) | GI50 (SW-620): > 100 µM (inactive) | GI50 (UACC-62): > 100 µM (inactive)
